Measurements taken from US20260159500A1, “KINESIN KIF18A INHIBITOR AND USE THEREOF” (SHANGHAI APEIRON THERAPEUTICS COMPANY LIMITED, priority 2022, published 2026).
Like-named read-outs stand apart in the source and are kept apart here.

Experiments:
[1] = biological target: T1, Human KIF18A (amino acid sequence 1-417) (Homo sapiens, UniProt Q8NI77); assay: Enzymatic activity test (ADP-Glo, microtubule-stimulated KIF18A ATPase); assay type: biochemical; conditions: 60 μg/mL microtubules, 25 μM ATP, 2.5 nM KIF18A protein, 120 min at ambient temperature, read-out: KIF18A_nM
T1 construct: purchased Viva Biotech (Shanghai) Ltd
T1 sequence (Q8NI77 1-417): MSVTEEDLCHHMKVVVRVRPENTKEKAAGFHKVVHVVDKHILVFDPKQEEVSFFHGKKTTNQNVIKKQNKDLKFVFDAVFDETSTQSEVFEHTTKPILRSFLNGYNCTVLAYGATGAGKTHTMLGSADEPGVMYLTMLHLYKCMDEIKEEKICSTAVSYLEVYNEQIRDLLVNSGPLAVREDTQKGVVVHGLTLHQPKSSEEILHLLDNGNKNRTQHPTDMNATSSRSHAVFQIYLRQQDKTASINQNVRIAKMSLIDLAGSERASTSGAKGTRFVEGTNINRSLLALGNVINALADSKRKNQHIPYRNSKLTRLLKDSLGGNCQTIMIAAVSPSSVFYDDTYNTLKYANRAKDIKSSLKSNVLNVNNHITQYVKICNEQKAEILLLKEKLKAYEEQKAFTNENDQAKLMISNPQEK
Summary of the method: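 Microtubule-stimulated ATPase of KIF18A(1-417) run with 60 μg/mL microtubules, 25 μM ATP and 2.5 nM enzyme, compounds at 0-10 μM final, 120 min at ambient temperature. ADP formed was read by ADP-Glo chemiluminescence after two 30-min reagent incubations.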

HT29 cells = assay: CyQuant cell proliferation activity test in HT29 cells; assay type: cell-based; conditions: 2000 cells per well, 3 days incubation, IC50 by XLFIT, read-out: HT29_IC50_nM
Summary of the method: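 Cells seeded at 2000/well in RPMI-1640 with 10% FBS, overnight, then exposed 3 days at 37 °C to compound from 3000 nM top, 3-fold, 9 points, 0.2% DMSO. CyQuant read after 1 h; IC50 from curve fit.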

OVCAR3 cells = assay: Cell proliferation activity test in OVCAR3 cells (CyQUANT Direct); assay type: cell-based; conditions: 3 days incubation, CyQUANT fluorescence detection, read-out: OVCAR-3_IC50_nM
Summary of the method: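 Log-phase cells in RPMI-1640 with 10% FBS were seeded overnight, then exposed to compound at final 0–10 μM (0.2% DMSO) for 3 days at 37 °C, 5% CO2. Proliferation was read by CyQUANT Direct fluorescence after 60 min at 37 °C.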

| Structure (SMILES) | IC50 [1] | IC50 (HT29 cells; Homo sapiens, HT-29, 72 h) | IC50 (OVCAR3 cells; Homo sapiens, OVCAR-3, 72 h) | IC50 (HT29 cells) | IC50 (OVCAR3 cells) |
| --- | --- | --- | --- | --- | --- |
| O=C(Nc1cc2ccc(O)nc2c(N2CCC(F)(F)CC2)c1F)c1ccc(NS(=O)(=O)CCO)cc1N1CCC2(CC1)CC2 [Example 76, N-(8-(4,4-difluoropiperidin-1-yl)-7-fluoro-2-hydroxyquinolin-6-yl)-4-((2-hydroxyethyl)sulfonamido)-2-(6-azaspiro[2.5]oct-6-yl)benzamide] | 46 nM | 31 nM | 34 nM |  |  |
| Nc1ccc2cc(NC(=O)c3ccc(NS(=O)(=O)CCO)cc3N3CCC4(CC3)CC4)c(F)c(N3CCC(F)(F)CC3)c2n1 [Example 78, N-(2-amino-8-(4,4-difluoropiperidin-1-yl)-7-fluoroquinolin-6-yl)-4-((2-hydroxyethyl)sulfonamido)-2-(6-azaspiro[2.5]octan-6-yl)benzamide] | 193 nM | 11 nM | 12 nM |  |  |
| CNc1ccc2cc(NC(=O)c3ccc(NS(=O)(=O)CCO)cc3N3CCC4(CC3)CC4)c(F)c(N3CCC(F)(F)CC3)c2n1 [Example 79, N-(8-(4,4-difluoropiperidin-1-yl)-7-fluoro-2-(methylamino)quinolin-6-yl)-4-((2-hydroxyethyl)sulfonamido)-2-(6-azaspiro[2.5]oct-6-yl)benzamide] | 943 nM | 55 nM | 47 nM |  |  |
| O=C(Nc1cc2cccnc2c(N2CCC(F)(F)CC2)c1F)c1cnc(NS(=O)(=O)CCO)cc1N1CCC2(CC1)CC2 [Example 80, N-(8-(4,4-difluoropiperidin-1-yl)-7-fluoroquinolin-6-yl)-6-((2-hydroxyethyl)sulfonamido)-4-(6-azaspiro[2.5]oct-6-yl)nicotinamide] | 9 nM | 20 nM | 18 nM |  |  |
| O=C(Nc1cc(N2CCC(F)(F)CC2)c2cnccc2c1)c1ccc(NS(=O)(=O)CCO)cc1N1CCC2(CC1)CC2 [Example 81, N-(8-(4,4-difluoropiperidin-1-yl)isoquinolin-6-yl)-4-(2-hydroxyethylsulfonamido)-2-(6-azaspiro[2.5]octan-6-yl)benzamide] | 35 nM | 8 nM | 18 nM |  |  |
| O=C(Nc1cc(N2CCC(F)(F)CC2)c2nnccc2c1)c1ccc(NS(=O)(=O)CCO)cc1N1CCC2(CC1)CC2 [Example 82, 2-{6-azaspiro[2.5]octan-6-yl}-N-[8-(4,4-difluoropiperidin-1-yl)misonin-6-yl]-4-(2-hydroxyethanesulfonamido)benzamide] | 33 nM | 14 nM | 13 nM |  |  |
| Nc1ncc2cc(NC(=O)c3ccc(NS(=O)(=O)CCO)cc3N3CCC4(CC3)CC4)cc(N3CCC(F)(F)CC3)c2n1 [Example 84, N-(2-amino-8-(4,4-difluoropiperidin-1-yl)quinazolin-6-yl)-4-((2-hydroxyethyl)sulfonamido)-2-(6-azaspiro[2.5]oct-6-yl)benzamide] | 40 nM | 25 nM | 11 nM |  |  |
| CCOC(=O)c1cnc2c(N3CCC(F)(F)CC3)cc(NC(=O)c3ccc(NS(=O)(=O)CCO)cc3N3CCC4(CC3)CC4)cc2c1 [Example 86, Ethyl 6-(2-{6-azaspiro[2.5]octan-6-yl}-4-(2-hydroxyethanesulfonamido)benzoylamino)-8-(4,4-difluoropiperidin-1-yl)quinoline-3-carboxylate] | 223 nM | 56 nM | 34 nM |  |  |
| O=C(O)c1cnc2c(N3CCC(F)(F)CC3)cc(NC(=O)c3ccc(NS(=O)(=O)CCO)cc3N3CCC4(CC3)CC4)cc2c1 [Example 87, 6-(2-{6-azaspiro[2.5]octan-6-yl}-4-(2-hydroxyethanesulfonamido)benzoylamino)-8-(4,4-difluoropiperidin-1-yl)quinoline-3-carboxylic acid] | 10 nM | > 3000 nM | > 3000 nM |  |  |
| NC(=O)c1cnc2c(N3CCC(F)(F)CC3)cc(NC(=O)c3ccc(NS(=O)(=O)CCO)cc3N3CCC4(CC3)CC4)cc2c1 [Example 88, 6-(2-{6-azaspiro[2.5]octan-6-yl}-4-(2-hydroxyethanesulfonamido)benzoylamino)-8-(4,4-difluoropiperidin-1-yl)quinoline-3-carboxamide] | 41 nM | 425 nM | 154 nM |  |  |
| Cc1cc2cc(NC(=O)c3ccc(NS(=O)(=O)CCO)cc3N3CCC4(CC3)CC4)cc(N3CCC(F)(F)CC3)c2nc1N [Example 89, N-[2-Amino-8-(4,4-difluoropiperidinyl)-3-methyl (6-quinolinyl)](2-(6-azaspiro[2.5]octan-6-yl)-4-{[(2-hydroxyethyl)sulfonyl]amino}phenyl)formamide] | 179 nM |  |  | 32 nM | 32 nM |
| Cc1cnc2c(N3CCC(F)(F)CC3)c(F)c(NC(=O)c3ccc(NS(=O)(=O)CCO)cc3N3CCC4(CC3)CC4)cc2c1 [Example 90, 2-{6-azaspiro[2.5]octan-6-yl}-N-[8-(4,4-difluoropiperidin-1-yl)-7-fluoro-3-methylquinolin-6-yl]-4-(2-hydroxyethanesulfonamido)benzamide] | 341 nM | 106 nM | 96 nM |  |  |
| Nc1cnc2c(N3CCC(F)(F)CC3)c(F)c(NC(=O)c3ccc(NS(=O)(=O)CCO)cc3N3CCC4(CC3)CC4)cc2c1 [Example 91, N-[3-amino-8-(4,4-difluoropiperidin-1-yl)-7-fluoroquinolin-6-yl]-2-{6-azaspiro[2.5]octan-6-yl}-4-(2-hydroxyethanesulfonamido)benzamide] | 173 nM | 16 nM | 13 nM |  |  |
| C[C@H](CO)S(=O)(=O)Nc1ccc(C(=O)Nc2cc3cccnc3c(N3CCC(F)(F)CC3)n2)c(N2CCC3(CC2)CC3)c1 [Example 96, 2-{6-Azaspiro[2.5]octan-6-yl}-N-[8-(4,4-difluoropiperidin-1-yl)-1,7-naphthyridin-6-yl]-4-[(2R)-1-hydroxypropane-2-sulfonamido]benzamide] | 153 nM | 17 nM | 11.3 nM |  |  |
| C[C@@H](CO)S(=O)(=O)Nc1ccc(C(=O)Nc2cc3cccnc3c(N3CCC(F)(F)CC3)n2)c(N2CCC3(CC2)CC3)c1 [Example 97, 2-{6-azaspiro[2.5]octan-6-yl}-N-[8-(4,4-difluoropiperidin-1-yl)-1,7-naphthyridin-6-yl]-4-[(2S)-1-hydroxypropane-2-sulfonamido]benzamide] | 153 nM | 17 nM | 13.9 nM |  |  |
| C[C@H](CO)S(=O)(=O)Nc1ccc(C(=O)Nc2cc3cccnc3c(N3CCC(F)(F)CC3)c2F)c(N2CCC3(CC2)CC3)c1 [Example 98, 2-{6-azaspiro[2.5]octan-6-yl}-N-[8-(4,4-difluoropiperidin-1-yl)-7-fluoroquinolin-6-yl]-4-[(2R)-1-hydroxypropane-2-sulfonamido]benzamide] | 166 nM | 21 nM | 17 nM |  |  |
| C[C@@H](CO)S(=O)(=O)Nc1ccc(C(=O)Nc2cc3cccnc3c(N3CCC(F)(F)CC3)c2F)c(N2CCC3(CC2)CC3)c1 [Example 99, 2-{6-azaspiro[2.5]octan-6-yl}-N-[8-(4,4-difluoropiperidin-1-yl)-7-fluoroquinolin-6-yl]-4-[(2S)-1-hydroxypropane-2-sulfonamido]benzamide] | 174 nM | 22 nM | 17 nM |  |  |
| O=C(Nc1ccc(NS(=O)(=O)CCO)cc1N1CCC2(CC1)CC2)c1cc(N2CCC(F)(F)CC2)c2ncccc2c1 [Example 100, N-(2-{6-azaspiro[2.5]octan-6-yl}-4-(2-hydroxyethanesulfonamido)phenyl)-8-(4,4-difluoropiperidin-1-yl)quinoline-6-carboxamide] | 24 nM | 12 nM | 11 nM |  |  |
